According to patent US10258701B2, “Labeled evans blue dye derivative for in vivo serum albumin labeling” (The United States of America, as represented by the …, priority 2015, dated 2019):
Values joined by “and” are separate entries in the source; they are usually repeats but may differ in a detail not shown here. Equal entries are not always repeated. Where two headings read alike, the source gives them in different places.

Key:
albumin [1] = target: T1, albumin (Homo sapiens, UniProt P02768); experiment: Absorbance and fluorescence emission of Evans blue with and without albumin; assay type: physicochemical
Text: FIGS. 1A and 1B show the absorbance and fluorescence emission of Evans blue with and without albumin. […] Evans blue is almost not fluorescent without albumin.
After forming a complex with serum albumin, both NEB and EB became fluorescent. Since only trace amount of NEB was mixed with EB, the majority of the fluorescence came from EB. […] With optical imaging, the migration of the injected EB/NEB in lymphatics could be clearly observed after local injection. The fluorescence signal first reached the popliteal LN then migrated to the sciatic LN (FIG. 22). Ninety min after tracer injection, both LNs were clearly visualized by fluorescence optical imaging. Under bright light, apparent blue dye accumulation could also be seen by the naked eye (FIGS. 23A and 23B). PET and optical imaging were also performed with the same animal after injection of ^18F-AlF-NEB/EB. An overlay of the two images provided high positional correlation of the LNs (FIGS. 24A and 24B).

lymph nodes = experiment: Amount of EB dye in lymph nodes after local co-injection of 18F-AlF-NEB and EB; conditions: ex vivo
Method: Ninety min after local injection, both popliteal LN sites could be distinguished clearly by the apparent blue color, indicating the local accumulation of the dye molecules. The left sciatic LNs could also be seen but with much lower uptake of dye (FIGS. 19A and 19B). There was significant difference in weight between the popliteal LNs on the tumor side and the contralateral side but not between the sciatic LNs (popliteal LNs: 3.582±0.762 vs. 1.995±0.759 mg, p<0.05; sciatic LNs: 1.558±0.731 vs. 1.403±0.632 mg, p>0.05) (FIG. 20). […] However, there was no difference in the amount of EB between two sciatic LNs (0.030±0.008 μg vs. 0.028±0.015 μg, p>0.05). These ex vivo results were consistent with in vivo PET data.

platelet aggregation = conditions: cited from earlier work
albumin [2] = target: T1, albumin; experiment: Saturation binding assay of NEB with albumin (bound/unbound separated by agarose gel electrophoresis); conditions: unbound NEB quantified, read-out: dissociation constant (Kd) of NEB to albumin
Text: In a particular embodiment, the compound of formula (I) (also referred to herein as “NEB”) wherein n is 0 can be synthesized in two steps starting from o-tolidine as shown in Scheme 1. 1, 4, 7-triazacyclononane-N,N,N″-triacetic acid-3HCl (“NOTA”) was first coupled to o-tolidine using diethyl cyanophosphonate to give NOTA-o-tolidine in 26% yield after preparative reversed-phase HPLC. NOTA-o-tolidine was then coupled to 1-amino-8-naphthol-2,4-disulfonic acid to give NEB through the formation of diazonium salt with a yield of 46.6%. The purity of the product was >98% based on HPLC analysis and the identity of the product was confirmed by LC-MS. This truncated version of Evans blue retained the binding ability with albumin since stable NEB/albumin complex was confirmed by LC/MS. The complex formation was also confirmed by saturation binding assay. The bound NEB could be separated from the unbound NEB using agarose gel electrophoresis. […] The ^18F-AlF complex of NEB is also referred to herein as ^18F-AlF-NEB. The ^64CU complex of NEB is also referred to herein as ^64Cu-NEB.

[3] = human, in vivo
Method: A dosimetry study was also performed based on the PET imaging data.

UM-22B tumors = test system: UM-22B tumors; set-up: species or system mice; conditions: female, athymic nude, mouse, in vivo
Method: All animal studies were conducted in accordance with the principles and procedures outlined in the Guide for the Care and Use of Laboratory Animals and were approved by the Institutional Animal Care and Use Committee of the Clinical Center, NIH. The UM-22B human head and neck carcinoma cancer cell line was grown in DMEM medium supplemented with 10% fetal bovine serum (FBS), 100 IU/mL penicillin, and 100 μg/mL streptomycin (Invitrogen), and in a humidified atmosphere containing 5% CO2 at 37° C. The tumor model was developed in 5 to 6 week old female athymic nude mice (Harlan Laboratories) by injection of 5×10^6 cells into their right shoulders. The mice underwent small-animal PET studies when the tumor volume reached 100-300 mm^3 (2-3 weeks after inoculation).
PET scans and image analysis were performed using an Inveon small animal PET scanner (Siemens Medical Solutions). About 3.7 MBq of ^18F-AlF-NEB or ^18F-FB-Albumin or 7.4 MBq of ^64Cu-NEB was administered via tail vein injection under isoflurane anesthesia. For normal mice, 60-min dynamic PET scans were acquired. For tumor mice, 60-min dynamic PET scans were acquired, followed by a series of late time point scans at 2, 4, and 24 h (^64Cu only) after tracer injection. With acute inflammation model, 5-min static PET images were acquired at 30 min, 1 h and 2 h postinjection (n=3-5 per group). The images were reconstructed using a two-dimensional ordered-subset expectation maximum (2D OSEM) algorithm, and no correction was applied for attenuation or scatter. For each scan, regions of interest (ROIs) were drawn using vendor software (ASI Pro 5.2.4.0) on decay-corrected whole-body coronal images. The radioactivity concentrations (accumulation) within the heart, muscle, liver, and kidneys were obtained from mean pixel values within the multiple ROI volume and then converted to MBq per milliliter. These values were then divided by the administered activity to obtain (assuming a tissue density of 1 g/ml) an image-ROI-derived percent injected dose per gram (% ID/g).
Malignant tumors are characterized by torturous blood vessels and high vascular permeability. Besides, the anti-angiogenesis and “normalization” of tumor vasculature have been intensively investigated. Unlike radiolabeled RBCs, albumin can be used to study vascular permeability in tumors. NEB was labeled with ^64Cu, a positron emitter with longer half-life (t1/1=12.6 h) than ^18F (t1/2=109.8 min). A UM-22B xenograft model was developed and performed 60-min dynamic scan and then static scans at late time points up to 24 h. The in vivo distribution of ^64Cu-NEB was very similar to that of ^18F-AlF-NEB with most of radioactivity retained in the circulation system (FIG. 4A). Even at 4 h after tracer injection, radioactivity within heart region and major vessels was still dominant. […] At 24 h after tracer injection, the tumor uptake was still at a relatively high level (8.07±1.01% ID/g). The tracer uptake over the heart region was 16.09±0.51% ID/g at 1 h p.i., which dropped to 8.58±0.81% ID/g at 24 h (FIG. 5B).

[4] = ninety min after local injection

T1 sequence (P02768 25-609, species assumed): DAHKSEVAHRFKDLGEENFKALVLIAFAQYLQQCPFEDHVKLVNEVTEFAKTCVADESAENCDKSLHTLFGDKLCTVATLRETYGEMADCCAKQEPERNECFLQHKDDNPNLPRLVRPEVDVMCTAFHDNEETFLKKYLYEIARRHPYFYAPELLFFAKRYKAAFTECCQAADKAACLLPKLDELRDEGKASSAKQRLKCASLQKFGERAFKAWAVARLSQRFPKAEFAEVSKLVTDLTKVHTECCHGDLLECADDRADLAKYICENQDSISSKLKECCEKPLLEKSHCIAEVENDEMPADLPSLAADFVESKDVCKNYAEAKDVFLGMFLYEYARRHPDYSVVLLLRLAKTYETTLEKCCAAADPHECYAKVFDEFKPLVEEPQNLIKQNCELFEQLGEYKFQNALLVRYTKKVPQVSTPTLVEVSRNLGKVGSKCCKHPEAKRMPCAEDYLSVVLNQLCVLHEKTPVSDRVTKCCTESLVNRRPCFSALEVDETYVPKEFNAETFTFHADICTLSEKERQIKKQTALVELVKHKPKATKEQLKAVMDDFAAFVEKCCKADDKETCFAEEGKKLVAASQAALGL

## Cc1cc(-c2ccc(/N=N/c3ccc4c(S(=O)(=O)O)cc(S(=O)(=O)O)c(N)c4c3O)c(C)c2)ccc1/N=N/c1ccc2c(S(=O)(=O)O)cc(S(=O)(=O)O)c(N)c2c1O [EB, Evans blue]
Albumin [1]; only with albumin
  fluorescence emission peak: 680 nm
Albumin [1]; with or without albumin
  absorbance peak: 620 nm
Lymph nodes; presumably left side
  amount of EB in sciatic LNs, first value of the pair: 0.030 ± 0.008 µg
Lymph nodes; presumably right side
  amount of EB in sciatic LNs, second value of the pair: 0.028 ± 0.015 µg
Lymph nodes; [4]
  amount of EB dye in left popliteal LNs: 0.144 ± 0.034 µg
  amount of EB dye in right popliteal LNs: 0.091 ± 0.029 µg
Platelet aggregation
  threshold concentration for induction of platelet aggregation: about 100 μM

## Cc1cc(-c2ccc(NC(=O)CN3CCN(CC(=O)O)CCN(CC(=O)O)CC3)c(C)c2)ccc1N=Nc1ccc2c(S(=O)(=O)O)cc(S(=O)(=O)O)c(N)c2c1O [NEB]
Albumin [2]
  Kd: 48.9 µM and ~50 µM

## Cc1cc(-c2ccc(NC(=O)CN3CCN4CCN(CC3)CC(=O)[O][64Cu][O]C(=O)C4)c(C)c2)ccc1N=Nc1ccc2c(S(=O)(=O)O)cc(S(=O)(=O)O)c(N)c2c1O [^64Cu-NEB]
[3]
  absorbed dose, red bone marrow: 6.14 mSv
UM-22B tumors; 1 h
  tracer uptake over the heart region: 16.09±0.51 % ID/g
  tumor uptake: 5.73±1.11 % ID/g
UM-22B tumors; 2 h
  tumor uptake: 8.03±0.77 % ID/g
UM-22B tumors; 24 h
  tracer uptake over the heart region: 8.58±0.81 % ID/g
  tumor uptake: 8.07±1.01 % ID/g
